Laboratory results: US6969729B2, “Use of isatin derivatives as ion channel activating agents” (Neurosearch A/S, priority 1998, dated 2005)

| Structure (SMILES) | melting point |
| --- | --- |
| COc1c(F)ccc2c1NC(=O)C2=NO [Compound 1w, 6-Fluoro-7-methoxyisatin 3-oxime] | 268 to 270 °C |
| CN1C(=O)C(=NO)c2c1ccc(Cl)c2Cl [Compound 1d, 4,5-dichloro-1-methylisatin 3-oxime] | 140 to 142 °C |
| CN1C(=O)C(=NO)c2cc(Cl)c(Cl)cc21 [Compound 1b, 5,6-dichloro-1-methylisatin 3-oxime] | 232 to 236 °C |
| CN1C(=O)C(=NO)c2ccc(Cl)c(Cl)c21 [Compound 1j, 6,7-Dichloro-1-methylisatin 3-oxime] | > 200 °C |
| O=C1Nc2cc(Cl)c(Cl)cc2C1=NO [Compound 1q, 5,6-Dichloroisatin 3-oxime] | 274 to 275 °C |
| O=C1Nc2ccc(Br)cc2C1=NO [Compound 1a, 5-Bromoisatin 3-oxime] | 250 to 251 °C |
| Cc1ccc2c(c1C)NC(=O)C2=NO [Compound 1p, 6,7-Dimethylisatin 3-oxime] | 283 to 284 °C |
| O=C1Nc2c(ccc(F)c2F)C1=NO [Compound 1o, 6,7-Difluoroisatin 3-oxime] | 263 to 264 °C |
| Cc1c(Cl)ccc2c1NC(=O)C2=NO [Compound 1u, 6-Chloro-7-methylisatin 3-oxime] | > 300 °C |
| Cc1c(F)ccc2c1NC(=O)C2=NO [Compound 1v, 6-Fluoro-7-methylisatin 3-oxime] | 286 °C (dec.) |
